From patent US20180311238A1, “Selective Agonist Of a6 Containing nAChRs” (Saniona A/S, priority 2017, published 2018)

How the values were obtained:
Format in all cases: cell-based
[1] = molecular target: T1, neuromuscular α1-containing receptor subtypes (Homo sapiens, UniProt P02708+P07510+Q07001); experiment: FLIPR fluorescence-based calcium assay, TE671 cells; conditions: FLIPR calcium response relative to nicotine
T1 construct: endogenous in cells; host or cells: TE671
Experimental: The level of agonist activity of 9-methyl-3-pyridin-3-yl-3,9-diaza-bicyclo[3.3.1]nonane was tested in functional fluorescence-based calcium assays using TE671 cells and HEK293 cells stably expressing human α6/α3β2β3^V273S, α3β4 and α4β2 nicotinic receptors.
Cells were plated on poly-D-lysine coated 384-well microtiter plates and were allowed to proliferate for 24 h. Dye loading was performed by incubating cells with 2 μM fluo-4/AM for 1.5 h at room temperature. Dye not taken up by cells was removed by aspiration followed by three washing cycles with 25 μl of NMDG Ringer buffer (in mM: 140 NMDG, 5 KCl, 1 MgCl2, 10 CaCl2, 10 HEPES, pH 7.4) after which the cells were kept in 25 μl of the same buffer. The microtiter plates were placed in a Fluoremetric Imaging Plate Reader (FLIPR) and subjected to test compound at various concentrations. Background subtracted compound-mediated calcium responses were normalized to 100 μM nicotine control responses and pEC50 as well as relative maximal efficacy values were determined.
The neuromuscular nAChRs subtype—composed of α1β1γδ subunits—can be studied in the human medulloblastoma cell line TE671, and the α1 subunit can be specifically labelled with ^3H-α-bungarotoxin.

[2] = molecular target: T2, (Homo sapiens, UniProt P30926+P32297); experiment: Oocyte two-electrode voltage-clamp electrophysiology, α3β4; conditions: Xenopus laevis oocytes
T2 construct: expressed in transfected cells; host or cells: Xenopus laevis oocytes injected with cRNA
Experimental: Two-electrode voltage-clamp electrophysiology recordings were done in Xenopus laevis oocytes injected with approximately 25 ng cRNA. After injection, oocytes were incubated at 17° C. for 2-3 days. During measurements, an oocyte was placed in a custom designed recording chamber where compound solutions are added directly to the oocyte via a glass capillary. Compound solutions were prepared on the day of measurement and applied to oocytes with a flowrate of 2.0 ml/min. All datasets were baseline subtracted and responses to individual applications were read as peak current amplitudes. Concentration response relationships describing compound effect at a fixed acetylcholine concentration were fitted to a monophasic Hill-equation. Potency (EC50) and efficacy values (fitted maximal current relative to maximal current of acetylcholine).

[3] = system: rat striatal synaptosomes; experiment: 3H-dopamine release from rat striatal synaptosomes; conditions: fraction of release relative to total releasable dopamine
Experimental: Brains from Sprague-Dawley or Wistar rats (200-400 g) were dissected. Tissue from three rat brains yields enough material for one 96-well plate. Striata were dissected on an ice-chilled platform and placed in 12 ml ice-cold dissection buffer. The tissue was hereafter homogenized for 5-10 sec using a motor driven Teflon pestle in a glass homogenizing vessel. The homogenate was centrifuged at 1000×g for 10 min at 4° C. The resulting supernatant was then re-centrifuged at 12,000×g for 20 min at 4° C. The final crude P2 synatosomal fraction was re-suspended in oxygenated (equilibrated with an atmosphere of 96% O2: 4% CO2 for at least 30 min) Krebs bicarbonate buffer (0.5 ml/100 mg wet tissue weight) containing 100 nM ^3H-dopamine (3.9 μl/100 mg wet tissue weight) and incubated at 37° C. for 10 min. Pargyline was added to the buffer to prevent degradation of ^3H-dopamine.
The ^3H-dopamine loaded synaptosomes were centrifuged at 1000×g for 5 min at room temperature. […]
Following the collection of stimulated release, 75 μl Solvable™ was added to each well and allowed to incubate for at least 45 min to extract remaining ^3H-DA from the sample. […] Radioactivity from each collection was determined by conventional liquid scintillation counting using a Packard Topcount™ counter. […]

T2 sequence (P32297 32-505): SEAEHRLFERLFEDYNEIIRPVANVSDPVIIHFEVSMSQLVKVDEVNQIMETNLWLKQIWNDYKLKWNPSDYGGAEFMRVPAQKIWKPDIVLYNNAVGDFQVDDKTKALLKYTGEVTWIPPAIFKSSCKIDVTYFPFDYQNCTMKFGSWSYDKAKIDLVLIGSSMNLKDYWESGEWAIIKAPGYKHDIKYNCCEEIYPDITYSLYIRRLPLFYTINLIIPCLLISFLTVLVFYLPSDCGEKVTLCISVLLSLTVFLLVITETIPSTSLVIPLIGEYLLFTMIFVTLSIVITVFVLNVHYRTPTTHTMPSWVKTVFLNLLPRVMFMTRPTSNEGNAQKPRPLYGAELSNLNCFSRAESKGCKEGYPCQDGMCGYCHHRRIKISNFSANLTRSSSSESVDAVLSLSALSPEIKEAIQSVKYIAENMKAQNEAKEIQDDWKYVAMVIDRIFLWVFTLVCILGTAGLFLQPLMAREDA
T2 sequence (P30926 22-498): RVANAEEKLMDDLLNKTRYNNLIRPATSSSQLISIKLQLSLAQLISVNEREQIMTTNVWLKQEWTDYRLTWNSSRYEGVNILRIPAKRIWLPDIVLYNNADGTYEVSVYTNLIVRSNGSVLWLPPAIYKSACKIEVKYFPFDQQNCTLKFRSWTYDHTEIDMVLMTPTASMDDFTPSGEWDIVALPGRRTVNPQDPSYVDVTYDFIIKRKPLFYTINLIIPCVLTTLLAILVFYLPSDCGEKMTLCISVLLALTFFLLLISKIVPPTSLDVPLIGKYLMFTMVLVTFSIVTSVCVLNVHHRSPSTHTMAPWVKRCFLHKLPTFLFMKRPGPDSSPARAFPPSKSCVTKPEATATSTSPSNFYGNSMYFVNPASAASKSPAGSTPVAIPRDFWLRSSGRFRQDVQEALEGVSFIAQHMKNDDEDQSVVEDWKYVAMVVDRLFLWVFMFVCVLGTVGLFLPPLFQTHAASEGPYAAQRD
T1 sequence (P02708 21-457): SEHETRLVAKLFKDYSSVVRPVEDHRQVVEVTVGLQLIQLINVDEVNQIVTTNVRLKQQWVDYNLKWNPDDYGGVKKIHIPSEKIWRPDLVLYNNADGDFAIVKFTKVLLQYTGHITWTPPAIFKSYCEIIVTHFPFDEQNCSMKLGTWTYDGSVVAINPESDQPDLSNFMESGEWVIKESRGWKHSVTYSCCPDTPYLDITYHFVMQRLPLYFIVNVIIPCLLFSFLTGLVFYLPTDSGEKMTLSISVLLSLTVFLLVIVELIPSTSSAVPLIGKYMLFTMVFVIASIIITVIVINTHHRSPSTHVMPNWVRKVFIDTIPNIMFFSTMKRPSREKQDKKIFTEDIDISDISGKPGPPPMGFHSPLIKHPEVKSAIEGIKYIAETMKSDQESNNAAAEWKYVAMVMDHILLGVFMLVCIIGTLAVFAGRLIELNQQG
T1 sequence (P11230 24-501 partner): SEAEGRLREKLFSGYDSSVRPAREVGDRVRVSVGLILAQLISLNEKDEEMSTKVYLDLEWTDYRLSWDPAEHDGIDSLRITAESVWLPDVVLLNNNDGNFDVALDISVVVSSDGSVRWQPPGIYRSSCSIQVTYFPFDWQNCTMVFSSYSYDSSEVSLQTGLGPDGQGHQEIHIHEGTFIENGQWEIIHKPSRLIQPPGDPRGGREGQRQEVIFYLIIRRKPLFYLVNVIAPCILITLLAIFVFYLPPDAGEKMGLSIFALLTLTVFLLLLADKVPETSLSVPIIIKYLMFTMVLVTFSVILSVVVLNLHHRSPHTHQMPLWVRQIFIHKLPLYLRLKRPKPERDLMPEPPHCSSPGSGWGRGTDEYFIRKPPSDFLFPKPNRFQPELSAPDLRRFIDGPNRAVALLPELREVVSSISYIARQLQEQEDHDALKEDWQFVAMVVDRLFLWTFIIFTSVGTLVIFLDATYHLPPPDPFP
T1 sequence (P07510 23-517): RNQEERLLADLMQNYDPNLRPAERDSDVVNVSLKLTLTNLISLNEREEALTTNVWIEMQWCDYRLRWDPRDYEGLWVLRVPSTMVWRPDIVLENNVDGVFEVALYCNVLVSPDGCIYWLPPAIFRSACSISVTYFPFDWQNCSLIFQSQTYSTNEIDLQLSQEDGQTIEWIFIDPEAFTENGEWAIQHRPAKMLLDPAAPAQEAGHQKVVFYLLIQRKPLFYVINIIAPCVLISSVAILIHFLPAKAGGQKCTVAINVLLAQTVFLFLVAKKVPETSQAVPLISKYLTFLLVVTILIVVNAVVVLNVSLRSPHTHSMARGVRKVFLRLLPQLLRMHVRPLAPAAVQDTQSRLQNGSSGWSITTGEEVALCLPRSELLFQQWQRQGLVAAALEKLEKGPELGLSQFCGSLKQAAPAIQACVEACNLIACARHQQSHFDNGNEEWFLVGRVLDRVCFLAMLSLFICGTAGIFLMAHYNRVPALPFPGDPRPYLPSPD
T1 sequence (Q07001 22-517): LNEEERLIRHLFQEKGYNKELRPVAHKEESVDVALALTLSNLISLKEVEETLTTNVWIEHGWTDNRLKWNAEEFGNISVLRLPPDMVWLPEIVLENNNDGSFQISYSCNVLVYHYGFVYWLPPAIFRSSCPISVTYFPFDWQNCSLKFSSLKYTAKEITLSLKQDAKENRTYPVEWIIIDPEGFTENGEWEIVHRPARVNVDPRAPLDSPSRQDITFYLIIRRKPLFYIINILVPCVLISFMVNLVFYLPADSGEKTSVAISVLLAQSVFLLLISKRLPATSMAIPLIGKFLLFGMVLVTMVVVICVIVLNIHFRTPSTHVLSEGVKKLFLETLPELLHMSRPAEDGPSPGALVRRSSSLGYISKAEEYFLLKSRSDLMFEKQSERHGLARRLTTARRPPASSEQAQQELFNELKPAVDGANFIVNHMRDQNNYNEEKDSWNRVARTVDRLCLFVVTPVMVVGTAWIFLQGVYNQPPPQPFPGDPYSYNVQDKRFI

Compound: CN1C2CCCC1CN(c1cccnc1)C2 [9-methyl-3-pyridin-3-yl-3,9-diaza-bicyclo[3.3.1]nonane]
- efficacy [1]: practically no efficacy
- efficacy [2]: practically no efficacy
- 3H-dopamine release [3]: concentration-dependently stimulates
